Reference: PMC8511024, “In silico and multi-spectroscopic analyses on the interaction of 5-amino-8-hydroxyquinoline and bovine serum albumin as a potential anticancer agent” (Scientific Reports, 2021)

Experiments:
[1] = target: T1, bovine serum albumin (BSA) (Bos taurus, UniProt P02769); test: Fluorescence quenching of BSA (Stern–Volmer, Hill and Van't Hoff analyses); format: binding; conditions: for Stern–Volmer constant Ksv: BSA 4 µM, 5A8HQ 0–170 µM; for Quenching rate constant kq: lifetime of 1 × 10^−8 s assumed
T1 construct: bovine serum albumin (BSA), a representative of serum protein; purchased Sigma-Aldrich Co. LLC
T1 sequence (P02769 25-607): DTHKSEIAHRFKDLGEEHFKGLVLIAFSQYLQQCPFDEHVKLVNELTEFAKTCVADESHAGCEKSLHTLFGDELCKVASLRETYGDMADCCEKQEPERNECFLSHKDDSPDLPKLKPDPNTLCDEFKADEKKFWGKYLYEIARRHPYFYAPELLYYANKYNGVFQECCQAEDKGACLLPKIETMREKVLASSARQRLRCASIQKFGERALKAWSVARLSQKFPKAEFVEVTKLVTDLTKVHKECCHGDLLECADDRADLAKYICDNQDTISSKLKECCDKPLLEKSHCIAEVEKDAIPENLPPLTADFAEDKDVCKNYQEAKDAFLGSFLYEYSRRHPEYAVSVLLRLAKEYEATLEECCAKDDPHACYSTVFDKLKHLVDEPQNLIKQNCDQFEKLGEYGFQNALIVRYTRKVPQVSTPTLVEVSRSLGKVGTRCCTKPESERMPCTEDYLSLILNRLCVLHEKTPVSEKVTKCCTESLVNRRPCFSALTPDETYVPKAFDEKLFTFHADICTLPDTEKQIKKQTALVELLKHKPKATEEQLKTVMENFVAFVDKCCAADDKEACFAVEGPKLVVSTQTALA
Text: Quenching of intrinsic protein fluorescence can be triggered by either static or dynamic process. In some circumstances, both processes can concurrently provoke fluorescence quenching known as a combined quenching mechanism. Static and dynamic quenching processes obey a linear model of the Stern–Volmer equation (Eq. 1), which can be approximately differentiated by scrutinizing the Stern–Volmer constant ( Ksv ) at different temperatures. Positive relationship of Ksv with temperature indicates dynamic quenching process, while negative association infers static process. Dynamic quenching occurs via collisional encountering among protein and ligand. Increasing temperature enlarges ligand motion to hit protein and quench its fluorescence at the excited state, resulting in increasing Ksv . Static quenching is contrary to the dynamic one. It is arisen by the complexation of protein and ligand, in which rising temperature tends to disfavor binding event and lessen Ksv value. Combined quenching process influences both ground-state and excited state of protein fluorescence, which usually deviates the linearity of classical Stern–Volmer plot to downward or upward curvature[42].1 F0/F=1+KsvQ=1+kqτ0Q F0 and F are the steady-state fluorescence intensities of fluorophore (BSA) in the absence and the presence of quencher (5A8HQ), respectively. Q refers to the molar concentration of quencher. Ksv is Stern–Volmer constant. kq and τ0 are biomolecular quenching rate constant and fluorescence lifetime of the fluorophore without quencher, respectively.
Fluorescence quenching and thermodynamic analyses were performed at three different temperatures including 310, 300, and 290 K to imitate physiological, ambient, and hypothermic conditions, respectively. The 5A8HQ quenched fluorescence emission of BSA in a concentration dependent manner and almost reached saturation at 5A8HQ concentration above 130 µM (Fig. 3A). The Stern–Volmer plots behaved in a positive linear trend, indicating a single process of BSA fluorescence quenching by 5A8HQ (Fig. 3B).
In addition, quenching process could be roughly verified by determining the quenching rate constant of the interaction (Eq. (1)), in which the quenching rate constant at 2 × 10^10 M^−1 s^−1 is usually employed as a maximum cutoff for diffusion collision quenching of various quenchers. The fluorescence lifetime of excited state can be measured using a lifetime spectrofluorometer. However, in case of inaccessible to such instrument like this study, a lifetime of 1 × 10^−8 s is generally assumed for the calculation of quenching rate constant. Accordingly, the quenching rate constant of BSA‒5A8HQ interaction at each temperature was approximated to be 10^12 M^−1 s^−1 (Table 2), which was 100 times higher than that of the typical collisional quenching process (2 × 10^10 M^−1 s^−1). […] Thereby, the binding constants of complexation were elucidated using Hill’s plot.
Various non-covalent interactions play an important role in the binding of ligand to protein including hydrogen bonding, van der Waals force, electrostatic, and hydrophobic interactions. Therefore, complex formation between BSA and 5A8HQ was further explored to determine principal interaction forces and binding affinity. Nonlinear Hill’s equation (Eq. (2)) was applied on the fluorescence dataset of BSA–5A8HQ complex to obtain binding constant ( KA ) and Hill coefficient constant ( n ), which fundamentally infer affinity and cooperativity of the binding, respectively (Fig. 4A).
2 F0-F/F0=KA[Q]^n/1+KA[Q]^n F0 , F , and Q stand for the same annotations as the aforementioned in Eq. (1). Hill’s equation can be transformed to linear form as an expression of Eq. (3), which is often applied in many studies.3 logF0-F/F=logKA+nlogQ KA is similar to KSV in terms of binding constant, but in different aspects of interaction behavior. KA implies a degree of affinity at static process, while KSV rather reflects dynamic behavior among protein and ligand[16]. […]

[2] = target: T1, bovine serum albumin (BSA); test: Site probe competitive (site marker displacement) analysis; format: binding; conditions: 310 K; for Kd: Binding constant KA, BSA 4 µM
Text: Serum albumin can bind and transport various molecules since its structure assembles many binding pockets. Site I and site II are well-defined binding pockets located in hydrophobic regions of subdomains IIA and IIIA, respectively, which primarily bind aromatic and heterocyclic compounds. Site III is found on the hydrophilic region of subdomain IB to serve as a binding pocket for numerous compounds e.g., bilirubin, hemin, and sulfonamide derivatives. In addition, seven binding sites for fatty acids are discovered on subdomains IB, IIIA, and IIIB, and at the interface between subdomains. Herein, site-probe displacement study was employed to determine the preferred binding site on BSA of 5A8HQ using warfarin, ibuprofen, and digitoxin as competitive probes for sites I, II, and III, respectively. Binding constant of 5A8HQ to BSA was determined during equilibration with each site marker (Table 4).
BSA (4 µM) was equilibrated with various concentrations of 5A8HQ (0, 5, 10, 30, 50, 70, 90, 110, 130, 150, and 170 µM) for 10 min at the different temperatures (290, 300, and 310 K). Later, fluorescence spectra in a range of 285–450 nm were measured with 280 nm excitation using a temperature-controlled QuantaMaster™ 40 spectrofluorometer (Photon Technology International, Inc., Ontario, Canada). Site marker displacement analyses were achieved as the abovementioned, but an equimolar concentration of […] was added to BSA prior challenging with various 5A8HQ concentrations at physiological temperature (310 K). Inner filter effect (IFE) becaused by the excitation and emission beam attenuations by sample might produce nonlinearity artifact on the measured fluorescent signal, so IFE was routinely eradicated by the following equation[55].9 Fcor=Fobs×e^(A^ex-A^em)/2 where Fobs and Fcor are the measured and corrected fluorescence intensities, respectively. A^ex and A^em are the absorbance values at excitation and emission wavelengths being measured. The IFE corrected fluorescence signals were served for estimations of all pertinent parameters, such as quenching constant, binding constant, and thermodynamics parameters, if not otherwise stated.

[3] = target: T1, bovine serum albumin (BSA); test: Fluorescence resonance energy transfer (FRET) between BSA and 5A8HQ; format: binding
Text: Besides microenvironmental changes around its fluorophore, quenching of BSA fluorescence may also be provoked by fluorescence resonance energy transfer (FRET) process, in which the excited Trp and/or Tyr transfer their energy to the quencher (5A8HQ) via dipole–dipole interaction. However, the FRET phenomenon is strictly dependent on the degree of overlapping between emission spectrum of fluorophore and absorption spectrum of quencher. Also, fluorophore and quencher must be in proximity (2–8 nm) to each other and their transition dipoles must align in parallel orientation. FRET is a useful method to study molecular distance among molecules that can provide guidance on whether ligand binds with protein at proximity to the Trp fluorophore. The distance ( r ) between quencher and fluorophore can be calculated by Eq. (6).6 E=1-F/F0=R06/[…] E stands for the efficiency of fluorescence resonance energy transfer. F0 and F are fluorescence intensities of BSA in the absence and presence of 5A8HQ, respectively. R0 is the Förster distance, where half of the excitation energy is transferred to the acceptor. R0 can be obtained by Eqs. (7) and (8) as follows:7 R0=0.211k^2∅DJ/n^4^1/6 8 J=∫0∞Fλελλ^4dλ/∫0∞Fλdλ where k^2 is the orientation factor of the dipoles, which can range between 0 and 4. ∅D and n denote the fluorescence quantum yield of donor without quencher and the refractive index of the medium, respectively. J is an overlapping between the donor fluorescence spectrum and the quencher absorption spectrum. Fλ and ελ mean fluorescence intensity of the donor and molar absorption coefficient of the acceptor at the λ wavelength.
R0 was determined on the assumption that ∅D and n were 0.15 and 1.336, respectively. However, Förster distance depends greatly on orientation between donor’s and acceptor’s dipoles. k^2 value of 0.667 is generally assumed for dynamic dipole orientation, where dipoles are randomly oriented because of their rotational diffusion. […] Based on these two assumptions of dipole orientation, R0 were calculated to be 2.37 and 2.50 nm, which subsequently yielded the Trp to 5A8HQ distances ( r ) at 3.01 and 3.18 nm for static and dynamic dipole orientations, respectively.

[4] = target: T1, bovine serum albumin (BSA); test: Circular dichroism spectroscopy of BSA secondary structure; conditions: BSA 4 µM, 310 K, without 5A8HQ 66.17%
Text: Structural alteration of the BSA when interacting with 5A8HQ was further elucidated by a CD spectroscopy, which is a useful technique for analyzing the secondary structure of macromolecules. BSA structure is dominantly composed of α-helix (~ 67%), represented by two prominent negative bands at 208 (π–π* transition) and 222 (n–π* transition) nm, and a positive band at 192 nm (π–π* transition)[54]. […] This finding is in well agreement with other observations, especially thermodynamic parameters, molecular docking, and molecular dynamics simulations, which implied that BSA tends to transform its native conformation for ground-state complexation with 5A8HQ. Hydrogen bonding and electrostatic networks of the complex might reallocate hydrogen bonding of α-helix structure as indicated by a slight decrease in CD spectral bands.
CD measurement was performed to determine a secondary conformational alteration of BSA under 5A8HQ exposure using a Jasco J-815 spectropolarimeter (JASCO International Co. Ltd., Tokyo, Japan). BSA (4 µM) was incubated with 5A8HQ (5 and 50 µM) in a 1 mm path length cuvette at 310 K under constantly flushed with nitrogen. The spectra were recorded in a range of 200–260 nm at an interval of 1 nm with a 60 nm/min scanning rate.

[5] = read-out: Antioxidant activity IC50; cited from earlier work
BSA = test system: BSA; design: method as in PMID 30865872; conditions: cited from earlier work

## Nc1ccc(O)c2ncccc12 [5A8HQ, 5-Amino-8-hydroxyquinoline]
[1]; 290 K
  Hill coefficient constant n: 1 ± 0
  Stern–Volmer constant Ksv: 2.773 ± 0.071 × 10^4 M^−1
  Quenching rate constant kq: 2.773 ± 0.071 × 10^12 (M^−1 s^−1)
[1]; 300 K
  Hill coefficient constant n: 1 ± 0
  Stern–Volmer constant Ksv: 1.303 ± 0.043 × 10^4 M^−1
  Quenching rate constant kq: 1.303 ± 0.043 × 10^12 (M^−1 s^−1)
[1]; 310 K
  Hill coefficient constant n: 1 ± 0
  Stern–Volmer constant Ksv: 1.173 ± 0.032 × 10^4 M^−1
  Quenching rate constant kq: 1.173 ± 0.032 × 10^12 (M^−1 s^−1)
[1]; Binding constant KA, 290 K, Hill's equation
  Kd: 40 µM
[1]; Binding constant KA, 300 K, Hill's equation
  Kd: 58.6 µM
[1]; Binding constant KA, 310 K, Hill's equation
  Kd: 83.7 µM
[1]; Binding constant of BSA‒5A8HQ interaction (order of magnitude), 290–310 K
  Kd: 100 µM
[1]; at each temperature, lifetime 1 × 10^−8 s assumed
  Quenching rate constant (order of magnitude): ~10^12 M^−1 s^−1
[2]; with digitoxin (site III marker) 4 µM
  Kd: 47.6 µM
[2]; with ibuprofen (site II marker) 4 µM
  Kd: 47.8 µM
[2]; with warfarin (site I marker) 4 µM
  Kd: 47.1 µM
[2]; without site marker
  Kd: 83.7 µM
  Number of binding site n: 1 ± 0
[2]; with digitoxin 4 µM
  Number of binding site n: 1 ± 0
[2]; with ibuprofen 4 µM
  Number of binding site n: 1 ± 0
[2]; with warfarin 4 µM
  Number of binding site n: 1 ± 0
[3]; BSA 4 µM fluorescence, 5A8HQ 5 µM absorption
  Integral spectral overlap J: 9.55 × 10^13 M^−1 cm^−1 nm^4
[3]; dynamic dipole orientation
  Trp to 5A8HQ distance r: 3.18 nm
[3]; dynamic dipole orientation, k^2 0.667
  Förster distance R0: 2.50 nm
[3]; static dipole orientation
  Trp to 5A8HQ distance r: 3.01 nm
[3]; static dipole orientation, k^2 0.475
  Förster distance R0: 2.37 nm
[4]; 5A8HQ 5 µM
  α-helix content of BSA: 64.96%
[4]; 5A8HQ 50 µM
  α-helix content of BSA: 63.65%
[5]
  IC50: 8.71 µM

## Oc1c(I)cc(Cl)c2cccnc12 [clioquinol, 5-chloro-7-iodo-8-hydroxyquinoline]
BSA
  Binding constant KA: 10^8 M^−1

## Cc1c(C)c2c(c(C)c1O)CC[C@@](C)(CCC[C@H](C)CCC[C@H](C)CCCC(C)C)O2 [α-tocopherol, reference compound]
[5]
  IC50: 13.5 µM
